Data from patent US11214594B2, “Antimicrobial peptide having synergistic antibacterial effect with antibiotics on multidrug resistant bacteria, and use thereof” (priority 2016, dated 2022).
Values after ≈ are worked out from the molar mass of the structure shown. Where a SMILES comes first, the peptide text is derived from it.

What was measured:
MDREC 1238 = format: cell-based, Escherichia coli
Summary of the method: (§1)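 Peptides were serially diluted twofold in Mueller-Hinton medium and combined 1:1 with bacterial suspensions prepared at 2×10^6 CFU. Readout was the minimal inhibitory concentration, i.e. the lowest concentration with no growth.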

P. aeruginosa = assay: microbe, parasite or virus in culture; format: cell-based, Pseudomonas aeruginosa
Summary of the method: as §1

MDRPA 2003 = format: cell-based, Pseudomonas aeruginosa
Summary of the method: as §1

MDRAB 12036 = format: cell-based, Acinetobacter baumannii
Summary of the method: as §1

MDRST 8009 = format: cell-based, Salmonella typhimurium; conditions: agent alone
Summary of the method: as §1

S. epidermidis = assay: microbe, parasite or virus in culture; format: cell-based, Staphylococcus epidermidis
Summary of the method: as §1

MDREC 1229 = assay: MIC of antibiotic during combined treatment with antimicrobial peptide; format: cell-based, Escherichia coli
Summary of the method: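 Antibiotic MIC came from antibiotic dilutions added to bacteria (2×10^6 CFU/ml, MH medium) already combined with peptide serially diluted 2:1 from its own MIC. Swapping the roles of the two agents gave the peptide MIC.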

A. baumannii = assay: as above; format: cell-based, Acinetobacter baumannii; conditions: for Antibiotic MIC, Erythromycin / Antibiotic MIC, Linezolid / Antibiotic MIC, Vancomycin: A. baumannii
Summary of the method: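 Antibiotic diluted in MH medium, dispensed per well with peptide; setup repeated with roles reversed; MIC read per combination.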

[1] = peptide treatment concentration 1 μg/ml
[2] = peptide treatment concentration 2 μg/ml
[3] = peptide treatment concentration 4 μg/ml
[4] = peptide treatment concentration 6 μg/ml
[5] = peptide treatment concentration 8 μg/ml
[6] = peptide treatment concentration 16 μg/ml
[7] = peptide treatment concentration 32 μg/ml
[8] = peptide treatment concentration 64 μg/ml
[9] = combined with peptide at 1 μg/ml
[10] = combined with peptide at 2 μg/ml
[11] = combined with peptide at 4 μg/ml
[12] = combined with peptide at 6 μg/ml
[13] = combined with peptide at 8 μg/ml
[14] = combined with peptide at 16 μg/ml
[15] = combined with peptide at 32 μg/ml
[16] = combined with peptide at 64 μg/ml

With `CC[C@H](C)[C@H](NC(=O)[C@H](CCCCN)NC(=O)[C@H](Cc1c[nH]c2ccccc12)NC(=O)[C@@H](N)CCCNC(=N)N)C(=O)N[C@@H](Cc1ccccc1)C(=O)N[C@@H](CCCCN)C(=O)N[C@@H](CCCCN)C(=O)N[C@H](C(=O)N1CCC[C@H]1C(=O)N[C@@H](CCCCN)C(=O)N[C@@H](CC(C)C)C(=O)N[C@@H](CC(C)C)C(=O)N[C@@H](Cc1c[nH]cn1)C(=O)N[C@@H](CO)C(=O)N[C@@H](CC(C)C)C(=O)N[C@@H](CCCCN)C(=O)N[C@@H](CCCCN)C(=O)N[C@@H](Cc1c[nH]c2ccccc12)C(N)=O)[C@@H](C)CC` [PapMA-10, RWK IFK KIP KLL HSL KKW-NH2] (H-RWKIFKKIPKLLHSLKKW-NH2; N-terminus assumed) the “Minimal inhibitory concentration MIC” value (MDREC 1238) was 64 µg/mL (≈ 27.2 µM), the “Minimal inhibitory concentration MIC” value (P. aeruginosa) was 8 µg/mL (≈ 3.41 µM) and the “Minimal inhibitory concentration MIC” value (MDRPA 2003) was 16 µg/mL (≈ 6.81 µM). For the same compound, the “Minimal inhibitory concentration MIC” value (MDRAB 12036) was 32 µg/mL (≈ 13.6 µM), the “Minimal inhibitory concentration MIC” value (MDRST 8009) was 32 µg/mL (≈ 13.6 µM) and the “Minimal inhibitory concentration MIC” value (S. epidermidis) was >128 µg/mL. The “Antibiotic MIC, Erythromycin” value (MDREC 1229; [1]) was >128 µg/mL, the “Antibiotic MIC, Linezolid” value (MDREC 1229; [1]) was >128 µg/mL and the “Antibiotic MIC, Vancomycin” value (MDREC 1229; [1]) was >128 µg/mL. The “Antibiotic MIC, Erythromycin” value (MDREC 1229; [2]) was 64 µg/mL, the “Antibiotic MIC, Linezolid” value (MDREC 1229; [2]) was >128 µg/mL and the “Antibiotic MIC, Vancomycin” value (MDREC 1229; [2]) was >128 µg/mL. The “Antibiotic MIC, Erythromycin” value (MDREC 1229; [3]) was 16 µg/mL, the “Antibiotic MIC, Linezolid” value (MDREC 1229; [3]) was 128 µg/mL and the “Antibiotic MIC, Vancomycin” value (MDREC 1229; [3]) was >128 µg/mL. The “Antibiotic MIC, Erythromycin” value (MDREC 1229; [4]) was 8 µg/mL, the “Antibiotic MIC, Linezolid” value (MDREC 1229; [4]) was 64 µg/mL and the “Antibiotic MIC, Vancomycin” value (MDREC 1229; [4]) was >128 µg/mL. For the same compound, the “Antibiotic MIC, Erythromycin” value (MDREC 1229; [5]) was 2 µg/mL, the “Antibiotic MIC, Linezolid” value (MDREC 1229; [5]) was 64 µg/mL and the “Antibiotic MIC, Vancomycin” value (MDREC 1229; [5]) was 128 µg/mL. The “Antibiotic MIC, Erythromycin” value (MDREC 1229; [6]) was 1 µg/mL, the “Antibiotic MIC, Linezolid” value (MDREC 1229; [6]) was 16 µg/mL and the “Antibiotic MIC, Vancomycin” value (MDREC 1229; [6]) was 32 µg/mL. The “Antibiotic MIC, Erythromycin” value (MDREC 1229; [7]) was 0.25 µg/mL, the “Antibiotic MIC, Linezolid” value (MDREC 1229; [7]) was 8 µg/mL and the “Antibiotic MIC, Vancomycin” value (MDREC 1229; [7]) was 16 µg/mL. The “Antibiotic MIC, Erythromycin” value (MDREC 1229; [8]) was 0 µg/mL, the “Antibiotic MIC, Linezolid” value (MDREC 1229; [8]) was 0 µg/mL and the “Antibiotic MIC, Vancomycin” value (MDREC 1229; [8]) was 0 µg/mL. For the same compound, the “Synergistic effect of antibacterial activity with existing antibiotics compared with PapMA-1” value (A. baumannii; A. baumannii and MDRAB 12035) was “level similar to that of PapMA-1 peptide”, the “Antibiotic MIC, Erythromycin” value (A. baumannii; [9]) was 32 µg/mL and the “Antibiotic MIC, Linezolid” value (A. baumannii; [9]) was >128 µg/mL. For the same compound, the “Antibiotic MIC, Vancomycin” value (A. baumannii; [9]) was >128 µg/mL, the “Antibiotic MIC, Erythromycin” value (A. baumannii; [10]) was 16 µg/mL and the “Antibiotic MIC, Linezolid” value (A. baumannii; [10]) was 128 µg/mL. For the same compound, the “Antibiotic MIC, Vancomycin” value (A. baumannii; [10]) was 64 µg/mL, the “Antibiotic MIC, Erythromycin” value (A. baumannii; [11]) was 8 µg/mL and the “Antibiotic MIC, Linezolid” value (A. baumannii; [11]) was 64 µg/mL. The “Antibiotic MIC, Vancomycin” value (A. baumannii; [11]) was 16 µg/mL, the “Antibiotic MIC, Erythromycin” value (A. baumannii; [12]) was 2 µg/mL and the “Antibiotic MIC, Linezolid” value (A. baumannii; [12]) was 32 µg/mL. The “Antibiotic MIC, Vancomycin” value (A. baumannii; [12]) was 16 µg/mL, the “Antibiotic MIC, Erythromycin” value (A. baumannii; [13]) was 0.5 µg/mL and the “Antibiotic MIC, Linezolid” value (A. baumannii; [13]) was 8 µg/mL. The “Antibiotic MIC, Vancomycin” value (A. baumannii; [13]) was 4 µg/mL, the “Antibiotic MIC, Erythromycin” value (A. baumannii; [14]) was 0 µg/mL and the “Antibiotic MIC, Linezolid” value (A. baumannii; [14]) was 0 µg/mL. The “Antibiotic MIC, Vancomycin” value (A. baumannii; [14]) was 0 µg/mL, the “Antibiotic MIC, Erythromycin” value (A. baumannii; [15]) was 0 µg/mL and the “Antibiotic MIC, Linezolid” value (A. baumannii; [15]) was 0 µg/mL. For the same compound, the “Antibiotic MIC, Vancomycin” value (A. baumannii; [15]) was 0 µg/mL, the “Antibiotic MIC, Erythromycin” value (A. baumannii; [16]) was 0 µg/mL and the “Antibiotic MIC, Linezolid” value (A. baumannii; [16]) was 0 µg/mL.
